Laboratory results as given in patent US9642821B2, “MiR-182 in the diagnosis and treatment of cancer” (Dana-Farber Cancer Institute, Inc., priority 2010, dated 2017).
“Also recorded” adds a separate entry of the source.

Key:
Type in all cases: cell-based
U2OS-DR-GFP cells = assay: Homologous recombination (HR) DR-GFP reporter assay; details: U2OS DR-GFP stably expressing miR-182, I-SceI
Method: U2OS-DR-GFP cells, with a single, stably integrated copy of the transgenic reporter DR-GFP were seeded (0.35×10^6 cells/well) into the wells of a 6-well tissue culture plate, transfected with a control and an miR-182 expression construct. Cells were selected for 4 weeks with 100 μg/ml of puromycin. mir-182 overexpression was confirmed with qPCR (FIG. 3C). HR assay was done as described (Chowdhury et al., Mol. Cell, 31:33-46 (2008)). Briefly, 2×10^5 cells plated overnight in 24-well plates were transfected with 0.8 μg of I-SceI expression plasmid (pCBA Sce) using Lipofectamine 2000. 2 days later, GFP positive cells were assayed by FACScan flow cytometer.

MDA-MB231 cells [1] = assay: Clonogenic cell survival assay with PARP inhibitors, MDA-MB231; details: MDA-MB231, 14 days, vs control mimic
Method: (§1) Hela cells (0.35×10^6 cells/well), MDA-MB231 cells (0.4×10^6 cells/well), 21NT cells (0.5×10^6) were seeded overnight and transfected with 10 nM of miRNA mimics or antagomirs (Ambion, Austin, Tex.) using Lipofectamine 2000. In rescue experiments, miR-182 or control mimics were co-transfected with 1 μg/ml BRCA1 (pcDNA3.1 vector). After 2 days, 1000 cells in 4 ml DMEM media (10% FBS v/v) were seeded on 6 cm tissue culture dishes in four replicates and allowed to attach overnight before treatment. PARP inhibitors (4-amino-1,8-naphthalimide (Sigma, St. Louis, Mo.) or ABT-888 (ChemieTek, Indianapolis, Ind.) in DMSO) were added to the growth media at indicated concentrations. Irradiated cells as well as cells in the presence of PARP inhibitor were allowed to form colonies for 14 days. For evaluation, formed colonies were stained with crystal violet and surviving colonies containing >50 cells were counted. Plating efficiency was 30-50%.

BRCA1 transcript = assay: Immunoprecipitation of HA-AGO1/miRNA complex, qRT-PCR of bound transcripts, MDA-MB231; details: MDA-MB231, HA-AGO1 IP, normalized to 5S rRNA
Method: miR-182 cDNA and miR-17 cDNA was cloned from HL60 cDNA in pcDNA3.1-Puro expression vector (Invitrogen, Carlsbad, Calif.) using the following primers: […]
MDA-MB231 cells (0.5×10^6 cells) were co-transfected with 1 μg of HA-AGO1 (pIRES-FLAG/HA vector, Addgene) and 0.5 μg of expression vector for miR-182/miR-17 or miR-scr using Lipofectamine 2000. After 2 days cells were harvested using 400 μl lysis buffer (100 mM KCl, 5 mM MgCl2, 10 mM Hepes, pH 7.0, 0.5% Nonidet P-40) containing freshly added RNase inhibitor, RNaseOUT (Invitrogen, Carlsbad, Calif.) and Protease Inhibitor Cocktail (Roche, Basel, Switzerland). After centrifugation, a 50 μl aliquot of supernatant was taken as the input for subsequent RNA extraction. The remaining supernatant was gently shaken with HA-beads (HA-probe Santa Cruz sc-7392) for 4 h at 4° C. in spin columns (Pierce Spin Columns-Screw Cap). The columns were drained, washed and the retained beads were treated with 5 U DNaseI in NT2 buffer (50 mM Tris, pH7.4, 150 mM NaCl, 1 mM MgCl2, 0.05% Nonidet P-40) for 10 minutes at 37° C., washed with NT2 buffer and then treated with Proteinase K in NT2 buffer plus 1% SDS for 30 minutes at 55° C. […] RNA was reverse transcribed (see RNA isolation) and analyzed with qPCR for enrichment of mRNA of miR-182/miR-17 predicted targets.

BRCA1 = BRCA1 expression after ectopic miRNA overexpression in HL60 cells (immunoblot, qPCR)
Method: Analysis of the miRNAs of the miR-183 cluster was conducted using qPCR using the TaqMan MicroRNA Assay from Applied Biosystems as per the manufacturer's instructions and normalized to RNU6B snRNA. Analysis of mRNA expression was carried out with qPCR using the SYBR Green master mix (Applied Biosystems, Foster City, Calif.) according to the manufacture's manual and the BioRad iCycler. The mRNA (1 μg) was reverse transcribed with 50 ng random primers using 100 U moloney murine leukemia virus (MMLV) reverse transcriptase (Epicentre, Madison, Wis.) according to the manufacturer's manual. Results were normalized to 5SrRNA or GAPDH.
In each experiment, where Western blot analysis was done, a fraction of 0.2−0.5×10^6 cells was taken out at day, 3 or 4, post-transfection. Breast cancer cell lines were collected from 6 well tissue culture plates (0.5-1×10^6 cells). Cells lysates were prepared in RIPA buffer (150 mM NaCl, 1% NP-40, 0.5% sodium deoxycholate, 0.1% SDS, 50 mM Tris, pH 8.0). Lysates of 0.1×10^6 cells of each sample plus loading buffer were loaded on 8% SDS-PAGE gels, semi-dry transferred on nitrocellulose membrane, and probed with anti-BRCA1 antibody at a 1:500 dilution (CALBIOCHEM, MS110) and anti-tubulin antibody at a 1:10,000 dilution (Sigma, Clone B-5-1-2).

MDA-MB231 cells [2] = assay: Clonogenic cell survival assay after γ-radiation, MDA-MB231; details: MDA-MB231, vs control mimic
Method: as §1

miR-182: microRNA with sequence 5′ UUUGGCAAUGGUAGAACUCACACU 3′ (SEQ ID NO:1); given as mimic (Ambion) or expression vector (UUUGGCAAUGGUAGAACUCACACU; listed as RNA, chemistry not given here; listed as Homo sapiens)
HR-mediated DSB repair efficiency (GFP positive cells) (U2OS-DR-GFP cells): significantly reduced HR-efficiency; also recorded: impedes homologous recombination-mediated repair
sensitivity to PARP1 inhibitor ABT-888 (clonogenic survival) (MDA-MB231 cells [1]): sensitize MDA-MB231 cells to PARP1 inhibition
sensitivity to PARP1 inhibitor ANI (clonogenic survival) (MDA-MB231 cells [1]): sensitize MDA-MB231 cells to PARP1 inhibition
sensitivity to PARP1 inhibitor ABT-888 (clonogenic survival) (MDA-MB231 cells [1]; listed as 182 mimic): impacts sensitivity to PARP1 inhibitor ABT-888
sensitivity to PARP1 inhibitor ANI (clonogenic survival) (MDA-MB231 cells [1]; listed as miR-182 mimic): significantly enhanced sensitivity to ANI
association of miRNA/AGO1 complex with BRCA1 transcript (BRCA1 transcript): associates selectively; also recorded: significantly enriched
BRCA1 protein level (BRCA1; HL60 cells transiently transfected with expression vectors, Western blot): significant decrease
BRCA1 mRNA level (BRCA1; ectopic overexpression, data not shown): moderate decrease
sensitivity to IR (clonogenic survival) (MDA-MB231 cells [2]): significantly more sensitive
sensitivity to IR (clonogenic survival) (MDA-MB231 cells [2]; listed as miR-182 mimic): significantly enhanced sensitivity to IR
